Drawing on patent US8796296B2, “Aminopyrimidine derivatives as LRRK2 modulators” (Genentech, Inc., priority 2011, dated 2014), this text covers Ki for three compounds.

Sequence of LRRK2 (Q5S007 whole entry G2019S): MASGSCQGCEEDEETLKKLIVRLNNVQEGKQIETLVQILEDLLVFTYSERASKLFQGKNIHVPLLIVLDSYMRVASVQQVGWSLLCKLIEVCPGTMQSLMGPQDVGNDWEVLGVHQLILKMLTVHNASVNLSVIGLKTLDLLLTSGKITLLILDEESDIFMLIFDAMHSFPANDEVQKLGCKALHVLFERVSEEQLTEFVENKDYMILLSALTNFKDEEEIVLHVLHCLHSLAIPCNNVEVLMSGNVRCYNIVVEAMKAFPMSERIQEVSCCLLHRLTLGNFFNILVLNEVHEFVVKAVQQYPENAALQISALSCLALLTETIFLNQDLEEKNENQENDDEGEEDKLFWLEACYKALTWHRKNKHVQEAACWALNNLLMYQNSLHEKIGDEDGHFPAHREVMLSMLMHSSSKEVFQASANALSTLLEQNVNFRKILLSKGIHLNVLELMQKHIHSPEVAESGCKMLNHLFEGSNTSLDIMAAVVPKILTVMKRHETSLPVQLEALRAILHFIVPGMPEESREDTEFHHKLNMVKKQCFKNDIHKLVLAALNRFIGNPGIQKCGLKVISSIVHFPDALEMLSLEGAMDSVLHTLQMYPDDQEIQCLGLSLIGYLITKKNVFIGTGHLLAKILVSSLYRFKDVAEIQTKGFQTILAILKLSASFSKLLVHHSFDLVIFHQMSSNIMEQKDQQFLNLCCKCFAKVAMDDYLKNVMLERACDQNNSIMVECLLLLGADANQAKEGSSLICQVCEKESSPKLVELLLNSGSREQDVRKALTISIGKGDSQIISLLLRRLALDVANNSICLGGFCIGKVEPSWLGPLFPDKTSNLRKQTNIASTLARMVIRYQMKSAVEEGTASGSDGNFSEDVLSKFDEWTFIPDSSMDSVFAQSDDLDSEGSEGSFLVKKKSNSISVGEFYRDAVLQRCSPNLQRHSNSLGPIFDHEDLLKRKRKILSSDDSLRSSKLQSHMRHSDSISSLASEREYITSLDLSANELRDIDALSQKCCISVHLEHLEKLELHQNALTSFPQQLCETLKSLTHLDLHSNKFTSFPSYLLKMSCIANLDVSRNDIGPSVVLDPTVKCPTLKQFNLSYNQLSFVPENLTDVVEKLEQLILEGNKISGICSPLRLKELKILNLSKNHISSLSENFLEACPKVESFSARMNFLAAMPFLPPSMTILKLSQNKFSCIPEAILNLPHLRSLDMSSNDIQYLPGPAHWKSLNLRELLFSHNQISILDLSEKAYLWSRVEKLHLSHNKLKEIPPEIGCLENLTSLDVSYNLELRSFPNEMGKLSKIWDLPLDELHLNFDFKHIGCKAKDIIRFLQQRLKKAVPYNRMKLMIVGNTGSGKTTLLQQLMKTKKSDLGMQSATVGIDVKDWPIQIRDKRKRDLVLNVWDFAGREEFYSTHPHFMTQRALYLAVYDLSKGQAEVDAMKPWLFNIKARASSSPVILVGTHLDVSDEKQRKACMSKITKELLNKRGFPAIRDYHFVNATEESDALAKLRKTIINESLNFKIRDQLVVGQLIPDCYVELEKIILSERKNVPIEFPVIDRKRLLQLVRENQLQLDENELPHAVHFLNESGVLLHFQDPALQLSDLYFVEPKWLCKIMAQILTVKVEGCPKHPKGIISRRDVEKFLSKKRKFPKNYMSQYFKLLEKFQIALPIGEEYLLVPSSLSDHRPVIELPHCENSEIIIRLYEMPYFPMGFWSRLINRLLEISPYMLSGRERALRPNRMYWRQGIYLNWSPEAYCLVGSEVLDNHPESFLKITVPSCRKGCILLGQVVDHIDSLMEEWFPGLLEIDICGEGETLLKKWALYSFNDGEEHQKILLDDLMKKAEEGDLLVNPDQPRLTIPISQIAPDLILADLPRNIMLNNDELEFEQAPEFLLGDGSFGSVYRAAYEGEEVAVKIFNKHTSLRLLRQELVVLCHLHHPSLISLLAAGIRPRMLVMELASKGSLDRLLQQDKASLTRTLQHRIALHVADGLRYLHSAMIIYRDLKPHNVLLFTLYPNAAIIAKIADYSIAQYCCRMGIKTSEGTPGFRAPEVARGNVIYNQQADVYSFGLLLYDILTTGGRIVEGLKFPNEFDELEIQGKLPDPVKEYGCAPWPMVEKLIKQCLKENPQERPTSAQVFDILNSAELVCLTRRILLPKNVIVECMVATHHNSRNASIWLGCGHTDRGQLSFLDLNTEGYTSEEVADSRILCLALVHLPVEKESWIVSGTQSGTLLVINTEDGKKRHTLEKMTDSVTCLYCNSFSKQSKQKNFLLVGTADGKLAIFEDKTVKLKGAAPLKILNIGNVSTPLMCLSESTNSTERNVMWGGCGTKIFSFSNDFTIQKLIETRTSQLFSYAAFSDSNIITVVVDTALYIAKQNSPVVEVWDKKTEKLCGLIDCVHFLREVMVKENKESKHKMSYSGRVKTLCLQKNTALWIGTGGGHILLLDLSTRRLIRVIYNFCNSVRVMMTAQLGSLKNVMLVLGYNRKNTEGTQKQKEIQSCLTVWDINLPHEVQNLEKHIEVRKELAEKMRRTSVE

In the test the target is LRRK2 (Homo sapiens (Human), UniProt Q5S007, G2019S). The test is described as follows: In Vitro LRRK2 LabChip Assay (LRRK2 Ki). In kind it is biochemical. As to the method:
In Vitro LRRK2 LabChip Assay
This assay was used to determine a compound's potency in inhibiting activity of LRRK2 by determining, Kiapp, IC50, or percent inhibition values. In a polypropylene plate, LRRK2, fluorescently-labeled peptide substrate, ATP and test compound were incubated together. Using a LabChip 3000 (Caliper Life Sciences), after the reaction the substrate was separated by capillary electrophoresis into two populations: phosphorylated and unphosphorylated. The relative amounts of each were quantitated by fluorescence intensity. LRRK2 Ki was determined according to the equation: Y=V0*(1−((x+Ki*(1+S/Km)+Et)/(2*Et)−(((x+Ki*(1+S/Km)+Et)^2−(4*Et*x))^0.5)/(2*Et))). Ki values in Table 4 and elsewhere herein are shown in μM.
Assay conditions and materials used were as follows:
LRRK2 Wild type in 5 mM MgCl2: 15 nM (Invitrogen lot #500607F)
Kinase reaction time: 2 hours
Wild type in 5 mM MgCl2: 80 μM
Kinase: LRRK2 G2019S (Invitrogen cat #PV4882). • LRRK2 Wild type (Invitrogen cat #PV4874).
Substrate: 5FAM-GAGRLGRDKYKTLRQIRQ-CONH2
Complete Reaction Buffer: H2O/25 mM Tris, pH 8.0/5 mM MgCl2/2 mM DTT/0.01% Triton X-100.
For serial dilutions, 34.6 μl DMSO was added to columns 3-24. For the assay controls, 37.5 μl DMSO was added to columns 1 and 2 of rows A and P. a,d and 50 μl 25 μM G-028831 (Staurosporine) was added to columns 1 and 2, row B. For the samples: to start at 100 μM, 37.5 μl DMSO was to columns 1 and 2, then 12.5 μl 10 mM compound; to start at 10 μM, 78 μl DMSO was added to columns 1 & 2, then 2 μl 10 mM compound; and to start at 1 μM, 25 μM compound (2 μl 10 mM cmpd+798 μl DMSO) was added to empty columns 1 and 2. A Precision instrument was used to perform 1:3.16 serial dilutions (“PLK_BM_serial_halflog”).
ATP was diluted to 282.1 μM in Complete Kinase Buffer (final concentration was 130 μM).
In Complete Reaction Buffer, substrate was diluted to 4 μM. Equal volumes of Complete Reaction Buffer and 4 μM substrate were combined to obtain the blank. Equal volumes of Complete Reaction Buffer and 4 μM substrate were combined and to the combined solution was added 2× final LRRK2 concentration.
To a 50 μl polypropylene plate, 5 μl/well buffer/substrate was added by hand to Blank wells. A Biomek FX was used to start the kinase reaction (“PLK SAR 23 ATP”). The following were added to the appropriate wells:
The plate was incubated for 2 hours in the dark. Biomek FX was used to stop the kinase reaction (“PLK Stop”), and 10 μl/well Stop solution was added to the Assay Plate.
Results were read on the LabChip 3000.
The LabChip 3000 was run using the job “LRRK2 IC50” with the following job settings: […]
Compound `CNc1nc(Nc2cc3c(cc2Cl)c(C(=O)N2CCN(C)CC2)cn3C)ncc1C(F)(F)F` [Compound 31, (5-chloro-1-methyl-6-(4-(methylamino)-5-(trifluoromethyl)pyrimidin-2-ylamino)-1H-indol-3-yl)(4-methylpiperazin-1-yl)methanone] displayed a Ki of 1 nM. Compound `CCN1CCN(C(=O)c2cn(C)c3cc(Nc4ncc(C(F)(F)F)c(NC)n4)c(Cl)cc23)CC1` [Compound 32, (5-chloro-1-methyl-6-(4-(methylamino)-5-(trifluoromethyl)pyrimidin-2-ylamino)-1H-indol-3-yl)(4-ethylpiperazin-1-yl)methanone] showed a Ki of 1 nM.

On to `CNc1nc(Nc2cc3c(cc2Cl)c(C(=O)N2C[C@@H]4C[C@H]2CO4)cn3C)ncc1C(F)(F)F` [Compound 33, (1S,4S)-2-oxa-5-azabicyclo[2.2.1]heptan-5-yl(5-chloro-1-methyl-6-(4-(methylamino)-5-(trifluoromethyl)pyrimidin-2-ylamino)-1H-indol-3-yl)methanone], for which affinity was put at a Ki of 3 nM.

One may read the Ki as a dissociation constant, usually derived from enzyme kinetics or from competition with a known ligand. Lower therefore signals a stronger hold on the target.
